# Measured values: patent US9428477B2, “Trans-2-decenoic acid derivative and drug containing same” (NIPPON ZOKI PHARMACEUTICAL CO., LTD., priority 2012, dated 2016)
# System: rats with paclitaxel-induced peripheral nerve disorder
# Assay: Rat peripheral nerve disorder induced by paclitaxel, von Frey test
# Type: in vivo
# Conditions: ip, test drug intraperitoneally, single dose, higher of values 1 and 5 hours after administration, mechanical stimulus of right hind limb, normal threshold 15, read-out: Recovery Rate of 50% Reaction Threshold Value
# Method: The effects of the compounds of the present invention were evaluated for a peripheral nerve disorder which is a side effect induced by the administration of an anti-cancer agent paclitaxel, such as hyperesthesia including allodynia induced by mechanical stimuli, which is a severe pain induced by such tactile stimuli which usually cause no pains. The compound of the present invention was intraperitoneally administered to rats as a test drug to conduct a von Frey test.
# Male SD rats of six weeks age (six rats per group) were used as experimental animals, and paclitaxel (2 mg/kg) was intraperitoneally administered every other day for four times in total to prepare rats with paclitaxel-induced peripheral nerve disorder. During the period of 18 to 25 days or during the period of 20 to 27 days after the initiation of paclitaxel administration, the test drug was intraperitoneally administered in a single dose of […], and the following von Frey test was conducted.
# (§1) The rats of the above (1) were placed in a transparent acrylic cage with a wire-meshed floor and habituated for about three minutes, and the 50% reaction threshold values to the mechanical stimulus of right hind limb were measured before administration of the test drug and after 1 and 5 hours from the initiation of the administration.
# (§2) The measurement was conducted using von Frey filaments (manufactured by North Coast Medical Inc.) in accordance with the methods of Chaplan, et al. (Journal of Neuroscience Methods, 53(1), 55-63, 1994) and Dixon, et al. (Annual Review of Pharmacology and Toxicology, 20, 441-462, 1980). […] The case where the rat escaped at the instance of removing the filament was also called positive. When the positive reaction was found, stimulus was applied similarly with a filament of one rank weaker, and in the absence of the reaction, stimulus was similarly applied with a filament of one rank stronger, and a point where the reaction changed from negative to positive or from positive to negative was called the first two reactions. Subsequently, stimuli were applied for continuously four times by the same up-down method. A 50% reaction threshold value to the mechanical stimulus was measured using the reaction to the six stimuli in total and then (mean value)±(standard error) for each group was calculated. Incidentally, when stimulus reached to a load of 15.0 g without positive reaction, or when positive reaction continued to a load of 0.4 g, 15.0 g or 0.25 g was adopted as each of 50% reaction threshold values. With regard to the higher 50% reaction threshold value between the 50% threshold values after 1 hour and 5 hours from administration of a test drug, a recovery rate (%) of the 50% reaction threshold value was calculated by the following expression in which 15 was taken as a normal threshold value.
# Recovery rate (%) of 50% reaction threshold value=[(50% reaction threshold value after 1 hour or 5 hours from administration of test drug)−(50% reaction threshold value before administration of test drug)]/[(Normal threshold value)−(50% reaction threshold value before administration of test drug)]×100
row,SMILES,change in vivo at 0.3 mg/kg [%]
1,"CCCCCCC/C=C/C(=O)N1CCCCC1 [Compound 5, 1-((E)-2-Decenoyl)piperidine]",41.6
2,"CCCCCCC/C=C/C(=O)N1CCN(CCN(C)C)CC1 [Compound 22, 1-((E)-2-Decenoyl)-4-[2-(dimethylamino)ethyl]piperazine]",29.7
3,"CCCCCCC/C=C/C(=O)N1CCN(CCC(=O)O)CC1 [Compound 21, 3-[4-((E)-2-decenoyl)piperazin-1-yl]propionic acid]",34.8
4,"CCCCCCC/C=C/C(=O)N1CCN(c2ccccc2)CC1 [Compound 25, 1-((E)-2-Decenoyl)-4-phenylpiperazine]",55.3
5,"CCCCCCC/C=C/C(=O)N1CCN(CCc2ccccc2)CC1 [Compound 27, 1-((E)-2-Decenoyl)-4-(2-phenylethyl)piperazine]",69.1
6,"CCCCCCC/C=C/C(=O)N1CCN(Cc2ccccc2)CC1 [Compound 26, 4-Benzyl-1-((E)-2-decenoyl)piperazine]",24.1
7,"CCCCCCC/C=C/C(=O)N1CCC(N(CC)CC)CC1 [Compound 13, 1-((E)-2-Decenoyl)-4-diethylaminopiperidine]",23.2
8,"CCCCCCC/C=C/C(=O)N1CCCC1 [Compound 1, 1-((E)-2-Decenoyl)pyrrolidine]",58.2
9,"CCCCCCC/C=C/C(=O)N1CCN(C(C)C)CC1 [Compound 20, 1-((E)-2-Decenoyl)-4-isopropylpiperazine]",26.9
10,"CCCCCCC/C=C/C(=O)N1CCSC1 [Compound 4, 3-((E)-2-Decenoyl)thiazolidine]",43.7
11,"CCCCCCC/C=C/C(=O)N1CCN(C2CCCCC2)CC1 [Compound 23, 4-Cyclohexyl-1-((E)-2-decenoyl)piperazine]",33

# System: MIA-induced OA rats
# Assay: Analgesic action against osteoarthritis model rats (MIA-induced OA), von Frey test
# Type: in vivo, rat
# Conditions: intraperitoneally, single dose of 500 μg/kg, hyperalgesia of OA induced by MIA
# Method: as §1
# as §2, with “value. […]” for “value.”
# A 50% reaction threshold value to the mechanical stimulus of male Wistar rats of six weeks age was measured (the measurement method will be mentioned later), and a normal control group was selected. […]
# With regard to the male Wistar rats of six weeks age used as experimental animals except the normal control group, their 50% reaction threshold values to the mechanical stimulus (the measuring method will be mentioned later) and body weights were measured after 24 days from the administration of MIA mentioned in (1) and then 3 groups, i.e. a normal control group, an onset control group, and a test drug-administered group, six rats per group, were organized. […]
row,SMILES,Recovery Rate of 50% Reaction Threshold [%]
1,"CCCCCCC/C=C/C(=O)N1CCCCC1 [Compound 5, 1-((E)-2-Decenoyl)piperidine]",35.8
2,"CCCCCCC/C=C/C(=O)N1CCN(CCN(C)C)CC1 [Compound 22, 1-((E)-2-Decenoyl)-4-[2-(dimethylamino)ethyl]piperazine]",13.2
3,"CCCCCCC/C=C/C(=O)N1CCN(c2ccccc2)CC1 [Compound 25, 1-((E)-2-Decenoyl)-4-phenylpiperazine]",18.9
4,"CCCCCCC/C=C/C(=O)N1CCCC1 [Compound 1, 1-((E)-2-Decenoyl)pyrrolidine]",24.2

# System: MAP kinase (ERK 1/2)
# Assay: Activation (phosphorylation) of MAP kinase in cultured cerebral cortex nerve cells, Western immunoblotting
# Type: cell-based
# Conditions: 0.5 h; fetal rat cerebral cortex nerve cells; compound 250 μg/ml in 0.1% DMSO; 30 minutes; relative to control = 1.00; read-out: Ratio of pMAPK to MAPK
# Method: With regard to the compounds of the present invention, the activation of MAP kinase (ERK 1/2) was measured in accordance with a Western immunoblotting in the following manner.
# Nerve cells were dispersed from cerebral cortex of a fetal rat of 17 days age, and the nerve cells were cultured for one day in a Dulbecco's modified Eagle's medium (DMEM) containing 5% fetal bovine serum. The culture medium was exchanged with a serum-free medium (B27 supplemented Neurobasal; Invitrogen), and the nerve cells were cultured at the density of 20,000 to 40,000 cells/cm^2 in a polyornithine-coated culture dish.
# After three days, the compound of the present invention was added, and the culture was continued for 30 minutes. Thereafter, the cells were recovered on ice using a solution containing a phosphatase inhibitor where Tris-HCl buffer was used as a base. The protein concentration of the resulting cell extract was quantified with a BCA Protein Assay Kit (Takara Bio Co., Ltd.), and a certain amount of the protein (3 μg for the measurement of MAP kinase and 5 μg for the measurement of phosphorylated MAP kinase) was subjected to polyacrylamide gel electrophoresis. The protein was transferred from the electrophoresed gel to a PVDF membrane, and Western immunoblotting was carried out using each of an anti-MAP kinase antibody (Cell Signaling Technology) and an anti-phosphorylated MAP kinase antibody (Cell Signaling Technology) of the primary antibody.
# Subsequently, the reaction with an alkaline phosphatase-labeled anti-rabbit IgG antibody (Promega) of the secondary antibody was carried out, and the enzymatic activity was allowed to develop color, to measure MAP kinase (MAPK) and the phosphorylated MAP kinase (pMAPK).
# Incidentally, each of the compounds of the present invention was dissolved in 0.1% DMSO to adjust its concentration to 250 μg/ml. As to the control, 0.1% DMSO was added.
# The intensity of the concentration of the bands of eletrophoresed the gel was calculated and quantified using Image J (K. K. Bioarts). The numerical values for the MAPK when using the compounds of the present invention were each divided by the numerical value for the MAPK of the control, and the numerical values for the pMAPK when using the compounds of the present invention were divided by the numerical value for the pMAPK of the control, whereby a ratio of the MAPK when using each of the compounds of the present invention to the control, and a ratio of the pMAPK when using each of the compounds of the present invention to the control were obtained. Subsequently, the ratio of the pMAPK to the control obtained was divided by the ratio of the MAPK to the control to obtain a ratio of the pMAPK to the MAPK.
row,SMILES,fold induction at 250 µg/mL
1,"CCCCCCC/C=C/C(=O)N1CCN(CCC(=O)O)CC1 [Compound 21, 3-[4-((E)-2-decenoyl)piperazin-1-yl]propionic acid]",1.54
2,"CCCCCCC/C=C/C(=O)N1CCN(CCc2ccccc2)CC1 [Compound 27, 1-((E)-2-Decenoyl)-4-(2-phenylethyl)piperazine]",1.44
3,"CCCCCCC/C=C/C(=O)N1CCN(Cc2ccccc2)CC1 [Compound 26, 4-Benzyl-1-((E)-2-decenoyl)piperazine]",1.48
4,"CCCCCCC/C=C/C(=O)N1CCC(N(CC)CC)CC1 [Compound 13, 1-((E)-2-Decenoyl)-4-diethylaminopiperidine]",1.63
5,"CCCCCCC/C=C/C(=O)N1CCN(C(C)C)CC1 [Compound 20, 1-((E)-2-Decenoyl)-4-isopropylpiperazine]",1.27
6,"CCCCCCC/C=C/C(=O)N1CCSC1 [Compound 4, 3-((E)-2-Decenoyl)thiazolidine]",1.47
7,"CCCCCCC/C=C/C(=O)N1CCN(C2CCCCC2)CC1 [Compound 23, 4-Cyclohexyl-1-((E)-2-decenoyl)piperazine]",1.3

# System: not given
# Assay: not given
# Conditions: not given
row,SMILES,melting point [°C]
1,"CCCCCCC/C=C/C(=O)N1CCN(CCC(=O)O)CC1 [Compound 21, 3-[4-((E)-2-decenoyl)piperazin-1-yl]propionic acid]",53 to 55
2,"CCCCCCC/C=C/C(=O)N1CCN(CCc2ccccc2)CC1 [Compound 27, 1-((E)-2-Decenoyl)-4-(2-phenylethyl)piperazine]",33 to 34
3,"CCCCCCC/C=C/C(=O)N1CCN(Cc2ccccc2)CC1 [Compound 26, 4-Benzyl-1-((E)-2-decenoyl)piperazine]",62 to 63
4,"CCCCCCC/C=C/C(=O)N1CCN(C2CCCCC2)CC1 [Compound 23, 4-Cyclohexyl-1-((E)-2-decenoyl)piperazine]",33 to 34
